One data set concerns the target T1, CXCR4 (Homo sapiens, UniProt P61073).
T1 construct: a human T cell strain in which CXCR4 is known to be expressed; endogenous in cells; host or cells: CEM cells (human T cell strain)
Nature of the data set: Inhibition of binding human SDF-1 (125I-SDF-1) to CEM cells. The following applies: 125I-SDF-1 binding to human T cell strain CEM cells, 4° C., 60 minutes. On the procedure:
Specifically, as a system of screening a compound that inhibits the binding between SDF-1 and CXCR4, for example a system of measuring the binding between iodine-labeled SDF-1 and a human T cell strain in which CXCR4 is known to be expressed is operable.
To human T cell strain CEM cells in a binding buffer (containing HEPES and BSA), the test compound and ^125I-SDF-1 (NEN) were added and the mixture was incubated at 4° C. for 60 minutes. The reacted CEM cells were rapidly filtrated with a GF/B membrane filter plate (Packard) to adsorb. The plate was washed with phosphate buffered saline (hereinafter abbreviated to PBS) three times and then dried. Microscint+20 (Packard) was added thereto. An amount of the radioactivity bound to the CEM cells was measured using Top Count (Packard) and inhibition (%) of the test compound was calculated according to the following equation: Inhibition={(Et−Ea)/(Et−Ec)}×100
Et: Amount of radioactivity when the test compound is not added,
Ec: Amount of radioactivity when non-radioactive SDF-1 (Pepro Tech) is added in an amount of 1,000 times as much as ^125I-SDF-1 as a test compound,
Ea: Amount of radioactivity when the test compound is added.

The nature of data set [1]: Artificial lipid membrane binding using Biacore S51 system (in vitro phospholipidosis risk). The following applies: for Determination: Biacore lipid membrane binding, positive if corrected value 150 or more; for Corrected value of binding response (RU): compound 50 μM in PBS/5% DMSO (pH 7.4), 37° C., DOPA liposome on Sensor Chip L1. The protocol:
10 mM of 1,2-dioleoyl-sn-glycero-3-phosphate monosodium salt (hereinafter abbreviated as DOPA) chloroform solution was evaporated to dryness by means of an aspirator, and 0.6 mL of PBS/5% dimethyl sulfoxide (hereinafter abbreviated as DMSO) was added. The solution was fully suspended by the vortex mixer, and the freezing and thawing were repeated for 5 times. Liposome was created by the liposome preparation instrument (manufactured by Avestin Inc.) and two syringes, and was diluted to 0.5 mM with PBS/5% DMSO just prior to immobilization.
38 μl of 1×PBS was added to 2 μl of a DMSO solution (10 mM), and the 360 μl of 1×PBS/5% DMSO was further added thereto and the 50 μM of final concentration in PBS/5% DMSO was prepared and measured.
All of the following analysis used Biacore® S51 system and the measurement conditions were set by Biacore S51 Control Soft.
The measurement temperature was set to be 37° C., and PBS/5% DMSO (pH 7.4) was used as a buffer. Series S Sensor Chip L1 was used for a sensor chip. DOPA was immobilized in one of the measuring spots on the sensor surface and the central spot was used as a reference.
Immobilization of liposome was conducted at a flow rate of 10 μL/min for about 3 minutes and then the compound was added at a flow rate of 30 μL/min and the interaction was measured. The measurement conditions are as follows: • Assay buffer: PBS/5% DMSO (pH 7.4) • Measurement temperature: 37° C. • Sensor chip: Series S Sensor Chip L1 • Flow rate: 10 μL/min at the time of the liposome immobilization; 30 μL/min at the time of the measurement of interaction with the compound Regeneration: 20 mM CHAPS (3-[(3-cholamidopropyl)dimethylammonio]-1-propanesulfonate), isopropanol/aqueous 50 mM sodium hydroxide solution=40/60 (volume ratio) mixture (60 seconds) (4) Data Processing
The data processing was conducted by means of method of Abdiche et al. (Analytical biochemistry, 328, 233-243 (2004)) by using Biacore S51 Evaluation Soft.
Regarding the value of binding response (RU) in which the value of reference was subtracted, it was divided by a sample molecular weight after minute error of the DMSO concentration included in the sample solution was corrected. In addition, the value obtained here was divided by an amount of capture at the time of the cycle because the value obtained here was proportional to the amount of capture of the liposome and the value was multiplied by a million to be considered as a corrected value (Corrected value=1,000,000×RU (test compound)/molecular quantity (test compound) RU (liposome)).
Propranolol, amiodarone, desipramine, imipramine and procaine were added as the controls, and it was recognized that the variation of the binding response was within about 10 to 15%.
The compound wherein a value of the binding response after the correction was 150 or more was determined as positive.

For data set [2], the system named is CHL/IU (cell line derived from a Chinese hamster lung). Nature of the data set: Phospholipidosis detecting system using fluorescent labeling phospholipid analog (NBD-PE). Type of data set: cell-based. To be noted: for Rate of increase of phopholipid accumulation (%): compound dose: 100 μM, CHL/IU cells, NBD-PE, about 24 hours; for Determination: positive if 25% or more of maximum increase rate of amiodarone. On the procedure:
100 μL/well as required (1 dose 2 wells) of cell suspension of CHL/IU (cell line derived from a Chinese hamster lung) (7×10^4 cells/mL) prepared by MEM (minimum essential medium) culture medium was added to a 96-well plate (96-well clear-bottom plate), and cultured for about 24 hours. After culture, the supernatant of the 96-well plate was removed, and the 100 μL/well compounds of each concentration dissolved and suspended in an MEM including 25 μmol/L nitrobenzoxadiazole dipalmitoyl phosphatidylethanolamine (NBD-PE) (hereinafter abbreviated as a NPD-PE medium) were added and treated for about 24 hours. The treatment concentrations of each compound were set to be 6.25, 12.5, 25, 50 and 100 μmol/L. The positive control substance was set to be amiodarone hydrochloride, and the treatment concentrations were set to be 1.25, 2.5, 5, 10 and 20 μmol/L. In addition, 5-well untreated controls (only MEM) and 5-well NBD-PE controls (made by means of adding a 1/100 amount of DMSO to the NBD-PE culture medium) were set per compound, and cultured in the same manner. After finishing the culture, the cultures were washed twice with phosphate buffered saline (hereinafter abbreviated as PBS) (−) 100 μL/well, and the MEM (100 μL) was added to all of the treatment wells including two empty wells for WST-1 background controls and cultured for about a half hour. The fluorescence intensities of each well were measured by using a microplate reader (manufactured by Molecular Devices Inc., SPECTRA max M2; the excitation wavelength 485 nm/fluorescence wavelength 535 nm). Using the average values of each dose×2 wells, a phospholipid increase rate (%) to the NBD-PE control was calculated by using the following calculating formula: Rate of increase of pholipid accumulation (%)=100×{(test compound fluorescence intensity−non-treated control fluorescence intensity)/(NBD-PE control fluorescence intensity−non-treated control fluorescence intensity)} (3) Cytotoxicity Assay 96-well plate measured in the phospholipid accumulation measurement was measured by means of Plate Reader (manufactured by Molecular Devices Inc., SPECTRA max M2) with the main wavelength of 450 nm and the correct wavelength of 690 nm to calculate a Pre value. An amount of 5 μL/well of Premix WS T-1 was added to each of the 96-hole plates by which Pre measurement was conducted. After culture for 2 to 4 hours, the 96-well plate was measured as well as the Pre measurement to calculate an Aft value. Then, the background control value was subtracted from the each measured value. A value which was calculated by subtracting the Pre value from the Aft value was used, then the cell growth rate (%) was calculated by using the following calculating formula: Cell growth rate (%)=100×[(test substance OD)/(NBD-PE control OD)] (4) Determination A test dose that indicated value of 25% or more of the maximum phospholipid accumulation increase rate of amiodarone which was the positive control was determined as positive. In addition, the dose whose cell growth rate was equal to or less than 50% in the cytotoxicity assay was not used for determination of existence or nonexistence of a phospholipidosis inductive effect.

SMILES strings stand for the structures.

T1 sequence (P61073 whole entry): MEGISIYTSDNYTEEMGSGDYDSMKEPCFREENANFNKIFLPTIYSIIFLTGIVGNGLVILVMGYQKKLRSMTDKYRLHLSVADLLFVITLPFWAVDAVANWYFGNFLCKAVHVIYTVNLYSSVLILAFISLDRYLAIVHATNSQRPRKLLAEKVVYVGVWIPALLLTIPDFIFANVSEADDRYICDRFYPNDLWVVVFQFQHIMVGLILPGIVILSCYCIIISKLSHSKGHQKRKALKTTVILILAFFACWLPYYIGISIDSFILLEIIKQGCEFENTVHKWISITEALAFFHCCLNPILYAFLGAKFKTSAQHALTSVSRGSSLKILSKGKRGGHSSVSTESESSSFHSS

The compound `O=C(O)CCn1ccnc1CN(Cc1ccc(CN2CCC3(CCN(C4CCCCC4)CC3)C2)cc1)Cc1ncc[nH]1` [Example 9 (1), 3-(2-{[{4-[(8-cyclohexyl-2,8-diazaspiro[4.5]dec-2-yl)methyl]benzyl}(1H-imidazol-2-ylmethyl)amino]methyl}-1H-imidazol-1-yl)propionic Acid] returned an IC50 on CXCR4 of 0.0034 µM. In data set [1], the Determination entry is on record as “Negative (The compound wherein a value of the binding response after the correction was 150 or more was determined as positive)” and the “Corrected value of binding response (RU)” value is recorded as 52.0 RU. For the same compound, in data set [2], the “Rate of increase of phopholipid accumulation (%)” value (“Rate of increase … (%)” for short) came out at 6% and the Determination entry was “Negative (A test dose that indicated value of 25% or more of the maximum phospholipid accumulation increase rate of amiodarone which was the positive control was determined as positive)”.
Take `O=C(O)Cn1ccnc1CN(Cc1ccc(CN2CCC3(CCN(C4CCCCC4)CC3)C2)cc1)Cc1ncc[nH]1` [Example 9, (2-{[{4-[(8-cyclohexyl-2,8-diazaspiro[4.5]dec-2-yl)methyl]benzyl}(1H-imidazol-2-ylmethyl)amino]methyl}-1H-imidazol-1-yl)acetic Acid]: the IC50 on CXCR4 amounted to 0.0048 µM. Besides, in data set [1], the Determination result is “Negative (The compound wherein a value of the binding response after the correction was 150 or more was determined as positive)” and the “Corrected value of binding response (RU)” value came out at 59.0 RU. Moreover, in data set [2], the “Rate of increase … (%)” value came out at 10% and the Determination entry is “Negative (A test dose that indicated value of 25% or more of the maximum phospholipid accumulation increase rate of amiodarone which was the positive control was determined as positive)”.
On to `CC(OC(=O)CCn1ccnc1CN(Cc1ccc(CN2CCC3(CCN(C4CCCCC4)CC3)C2)cc1)Cc1ncc[nH]1)OC(=O)OC1CCCCC1` (centres unmarked) [Example 36, 1-{[(cyclohexyloxy)carbonyl]oxy}ethyl 3-(2-{[{4-[(8-cyclohexyl-2,8-diazaspiro[4.5]dec-2-yl)methyl]benzyl}(1H-imidazol-2-ylmethyl)amino]methyl}-1H-imidazol-1-yl)propanoate], for which, on CXCR4, the IC50 turned out to be 0.0204 µM.
Still for that read-out and setting: under `CCOC(=O)CCCn1ccnc1CN(Cc1ccc(CN2CCC3(CCN(CC(C)C)CC3)C2)cc1)Cc1ncc[nH]1` [Example 37 (1), Ethyl 4-(2-{[(1H-imidazol-2-ylmethyl){4-[(8-isobutyl-2,8-diazaspiro[4.5]dec-2-yl)methyl]benzyl}amino]methyl}-1 H-imidazol-1-yl)butanoate] stands 0.0137 µM.
Same read-out and setting: under `CCOC(=O)CCCn1ccnc1CN(Cc1ccc(CN2CCC3(CCN(C(CC)CC)CC3)C2)cc1)Cc1ncc[nH]1` [Example 37 (3), Ethyl 4-(2-{[(4-{[8-(1-ethylpropyl)-2,8-diazaspiro[4.5]dec-2-yl]methyl]benzyl)(1 H-imidazol-2-ylmethyl)amino]methyl}-1H-imidazol-1-yl)butanoate] stands 0.0118 µM.
Regarding `CC(C)CN1CCC2(CC1)CCN(Cc1ccc(CN(Cc3ncc[nH]3)Cc3nccn3CCCC(=O)O)cc1)C2` [Example 38 (1), 4-(2-{[(1H-imidazol-2-ylmethyl){4-[(8-isobutyl-2,8-diazaspiro[4.5]dec-2-yl)methyl]benzyl}amino]methyl}-1H-imidazol-1-yl)butanoic Acid], the IC50 at CXCR4 came out at 0.0187 µM. Also, in data set [1], the Determination entry is “Negative (The compound wherein a value of the binding response after the correction was 150 or more was determined as positive)” and the “Corrected value of binding response (RU)” value turned out to be 5.4 RU. Moreover, in data set [2], the “Rate of increase … (%)” value amounted to 8% and the Determination result is on record as “Negative (A test dose that indicated value of 25% or more of the maximum phospholipid accumulation increase rate of amiodarone which was the positive control was determined as positive)”.
The like results for `CCC(CC)N1CCC2(CCN(Cc3ccc(CN(Cc4ncc[nH]4)Cc4nccn4CCCC(=O)O)cc3)C2)CC1` [Example 38 (3), 4-(2-{[(4-{[8-(1-ethylpropyl)-2,8-diazaspiro[4.5]dec-2-yl]methyl]benzyl)(1H-imidazol-2-ylmethyl)amino]methyl}-1H-imidazol-1-yl)butanoic Acid] were, in that order, 0.012 µM, “Negative (The compound wherein a value of the binding response after the correction was 150 or more was determined as positive)”, 98.9 RU, 11% and “Negative (A test dose that indicated value of 25% or more of the maximum phospholipid accumulation increase rate of amiodarone which was the positive control was determined as positive)”.

The values above are taken from patent US8618122B2, “Compound having acidic group which may be protected, and use thereof” (Ono Pharmaceutical Co., Ltd., priority 2006, dated 2013).
